According to patent US10435399B2, “HDAC6 inhibitory heterocyclic compound” (TAKEDA PHARMACEUTICAL COMPANY LIMITED, priority 2017, dated 2019):

How the values were obtained:
HDAC6 enzyme = biological target: T1, HDAC6 enzyme (Homo sapiens, UniProt Q9UBN7); assay: HDAC6 enzyme inhibitory activity (HDAC-Glo I/II Assay kit); type: biochemical; conditions: 10 μM; wells without enzyme = 100% inhibition
T1 construct: transducing full length HDAC6 gene into Sf-9 insect cells; GST; purchased SignalChem; host or cells: Sf-9 insect cells
T1 sequence (Q9UBN7 1-1215): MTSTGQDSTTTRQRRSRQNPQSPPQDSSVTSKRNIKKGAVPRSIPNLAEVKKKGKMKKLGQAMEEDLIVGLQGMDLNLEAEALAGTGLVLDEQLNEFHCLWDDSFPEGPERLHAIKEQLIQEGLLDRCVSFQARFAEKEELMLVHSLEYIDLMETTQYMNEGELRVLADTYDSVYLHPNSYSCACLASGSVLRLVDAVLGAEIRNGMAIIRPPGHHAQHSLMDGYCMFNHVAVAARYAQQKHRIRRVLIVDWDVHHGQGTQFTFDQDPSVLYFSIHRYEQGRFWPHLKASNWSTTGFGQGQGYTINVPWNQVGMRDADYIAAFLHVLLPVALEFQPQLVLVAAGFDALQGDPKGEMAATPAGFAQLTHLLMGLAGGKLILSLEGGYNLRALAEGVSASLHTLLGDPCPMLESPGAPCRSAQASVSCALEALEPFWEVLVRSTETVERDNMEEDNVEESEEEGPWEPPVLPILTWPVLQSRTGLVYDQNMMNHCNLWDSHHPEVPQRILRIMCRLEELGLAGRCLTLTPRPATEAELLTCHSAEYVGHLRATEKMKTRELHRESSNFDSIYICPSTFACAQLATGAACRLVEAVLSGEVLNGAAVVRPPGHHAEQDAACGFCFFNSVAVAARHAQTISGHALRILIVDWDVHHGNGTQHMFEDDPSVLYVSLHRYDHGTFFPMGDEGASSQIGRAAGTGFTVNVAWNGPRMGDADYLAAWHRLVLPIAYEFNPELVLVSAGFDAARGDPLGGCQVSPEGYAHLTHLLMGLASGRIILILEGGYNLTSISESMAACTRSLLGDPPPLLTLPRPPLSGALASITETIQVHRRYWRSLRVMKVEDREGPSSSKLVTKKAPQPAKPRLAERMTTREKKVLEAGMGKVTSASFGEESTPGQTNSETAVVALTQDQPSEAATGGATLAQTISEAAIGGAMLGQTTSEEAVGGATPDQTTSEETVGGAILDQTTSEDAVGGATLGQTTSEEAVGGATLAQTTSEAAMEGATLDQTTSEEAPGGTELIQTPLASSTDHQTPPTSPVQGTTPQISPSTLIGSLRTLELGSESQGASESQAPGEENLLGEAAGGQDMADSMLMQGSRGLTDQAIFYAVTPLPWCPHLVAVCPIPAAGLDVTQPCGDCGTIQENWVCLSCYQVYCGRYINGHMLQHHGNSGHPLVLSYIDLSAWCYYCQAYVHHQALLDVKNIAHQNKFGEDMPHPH
Outline: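 Luminescent HDAC-Glo I/II readout after 20 min room-temperature reaction with substrate-developer, following 60 min compound–enzyme preincubation. Enzyme: full-length HDAC6 from Sf-9 cells, GST-purified; buffer 24 mM Tris-HCl pH 7.5, 0.01% Tween-20, glutathione, salts. Wells lacking enzyme define 100% inhibition.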

[1] = system: acetylated tubulin in brain (hippocampus); assay: Increase in acetylated tubulin in brain (hippocampus ELISA); type: in vivo, C57BL/6J mouse; conditions: mouse hippocampus, oral 10 mg/kg, 4 h after administration, vs vehicle
Procedure: Increase in Acetylated Tubulin in Brain
A drug was suspended in 0.5% methyl cellulose to prepare a suspension for administration, having a concentration shown in Table 3. The suspension was orally administered into 8 to […] male C57BL/6J mouse, and after the passage of the time shown in Table 3, the brain was taken out, and hippocampus was obtained. The hippocampus was homogenized under RIPA extract (Wako) to which protease inhibitor (Thermo) and phosphatase inhibitor (Thermo) were added, and centrifuged in 15,000 g for 15 min to prepare a protein extract. The acetylated tubulin and total tubulin in the extract were detected by the following ELISA method. Tubulin antibody (Sigma) was immobilized on 96-well plate (Microlite2+, Thermo), and the plate was stored at 4° C. […] The plate was washed, HRP substrate was added thereto, and the luminescence was measured using a plate reader. The acetylated tubulin and total tubulin were quantified from logistics curve based on dilution series using the mouse hippocampus tissue extract, and the acetylated tubulin relative to total tubulin was calculated, and evaluated as an relative tubulin acetylation level. […] After F test for vehicle group and drug group, the significant difference between the two groups was analyzed by Student t-test or Welch test (indicated as * p<0.05, ** p<0.01). […]

- HDAC6 inhibitory rate (%) (10 μM) (HDAC6 enzyme): 99%
SMILES: O=C1c2cc(-c3nnc(C(F)F)o3)cnc2CN1[C@@H]1CCCC[C@H]1NC(=O)C(F)(F)C(F)(F)F [Example 489, N-((1R,2R)-2-(3-(5-(difluoromethyl)-1,3,4-oxadiazol-2-yl)-5-oxo-5,7-dihydro-6H-pyrrolo[3,4-b]pyridin-6-yl)cyclohexyl)-2,2,3,3,3-pentafluoropropanamide]
- relative tubulin acetylation level (acetylated tubulin relative to total tubulin) [1]: increase in significant tubulin acetylation level was observed
